Laboratory results from US12653830B2, “Substituted imidazoquinoxaline compounds and uses thereof” (Impact Therapeutics (Shanghai), Inc, priority 2019, dated 2026).
Values belong to the molecule of their own block, whether it stands above or below them.

Columns and labels:
ATM kinase = target: T1, ATM kinase (Homo sapiens, UniProt Q13315); test: In vitro ATM kinase assay (Cisbio HTRF, p53 substrate); type: biochemical; conditions: 30 μM ATP
T1 construct: purchased Eurofins 14-933

[1] = test system: human colon cancer cell SW620; test: MTT proliferation assay in combination with CPT-11, SW620; type: cell-based; conditions: Homo sapiens, SW-620, 120 h, medium containing 205 nM CPT-11, 5 days, read-out: IC50, inhibition of proliferation of SW620 combined with CPT-11
Method in brief: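 SW620 cells in RPMI 1640 + 10% FBS are seeded overnight, then given compound in fresh medium containing 205 nM CPT-11 (1% DMSO final) for 5 days at 37 °C, 5% CO2. Viability is read by MTT (0.5 mg/mL, 4 h) at 552/690 nm, normalised to background-corrected DMSO wells. IC50 is taken from viability versus log concentration.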

[2] = test system: human breast cancer cell MDA-MB-468; test: MTT proliferation assay, MDA-MB-468; type: cell-based; conditions: Homo sapiens, MDA-MB-468, 168 h, 7 days, single agent, read-out: IC50, inhibition of proliferation of MDA-MB-468
Method in brief: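 Cells seeded overnight, then treated 7 days at 37 °C, 5% CO2 in RPMI 1640 + 5% FBS with 1% final DMSO, medium changed on day 4. MTT (0.5 mg/mL) for 4 h, DMSO-solubilised, absorbance at 552 and 693 nm; viability relative to DMSO after background subtraction, IC50 from log-concentration curves.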

T1 sequence (Q13315 whole entry): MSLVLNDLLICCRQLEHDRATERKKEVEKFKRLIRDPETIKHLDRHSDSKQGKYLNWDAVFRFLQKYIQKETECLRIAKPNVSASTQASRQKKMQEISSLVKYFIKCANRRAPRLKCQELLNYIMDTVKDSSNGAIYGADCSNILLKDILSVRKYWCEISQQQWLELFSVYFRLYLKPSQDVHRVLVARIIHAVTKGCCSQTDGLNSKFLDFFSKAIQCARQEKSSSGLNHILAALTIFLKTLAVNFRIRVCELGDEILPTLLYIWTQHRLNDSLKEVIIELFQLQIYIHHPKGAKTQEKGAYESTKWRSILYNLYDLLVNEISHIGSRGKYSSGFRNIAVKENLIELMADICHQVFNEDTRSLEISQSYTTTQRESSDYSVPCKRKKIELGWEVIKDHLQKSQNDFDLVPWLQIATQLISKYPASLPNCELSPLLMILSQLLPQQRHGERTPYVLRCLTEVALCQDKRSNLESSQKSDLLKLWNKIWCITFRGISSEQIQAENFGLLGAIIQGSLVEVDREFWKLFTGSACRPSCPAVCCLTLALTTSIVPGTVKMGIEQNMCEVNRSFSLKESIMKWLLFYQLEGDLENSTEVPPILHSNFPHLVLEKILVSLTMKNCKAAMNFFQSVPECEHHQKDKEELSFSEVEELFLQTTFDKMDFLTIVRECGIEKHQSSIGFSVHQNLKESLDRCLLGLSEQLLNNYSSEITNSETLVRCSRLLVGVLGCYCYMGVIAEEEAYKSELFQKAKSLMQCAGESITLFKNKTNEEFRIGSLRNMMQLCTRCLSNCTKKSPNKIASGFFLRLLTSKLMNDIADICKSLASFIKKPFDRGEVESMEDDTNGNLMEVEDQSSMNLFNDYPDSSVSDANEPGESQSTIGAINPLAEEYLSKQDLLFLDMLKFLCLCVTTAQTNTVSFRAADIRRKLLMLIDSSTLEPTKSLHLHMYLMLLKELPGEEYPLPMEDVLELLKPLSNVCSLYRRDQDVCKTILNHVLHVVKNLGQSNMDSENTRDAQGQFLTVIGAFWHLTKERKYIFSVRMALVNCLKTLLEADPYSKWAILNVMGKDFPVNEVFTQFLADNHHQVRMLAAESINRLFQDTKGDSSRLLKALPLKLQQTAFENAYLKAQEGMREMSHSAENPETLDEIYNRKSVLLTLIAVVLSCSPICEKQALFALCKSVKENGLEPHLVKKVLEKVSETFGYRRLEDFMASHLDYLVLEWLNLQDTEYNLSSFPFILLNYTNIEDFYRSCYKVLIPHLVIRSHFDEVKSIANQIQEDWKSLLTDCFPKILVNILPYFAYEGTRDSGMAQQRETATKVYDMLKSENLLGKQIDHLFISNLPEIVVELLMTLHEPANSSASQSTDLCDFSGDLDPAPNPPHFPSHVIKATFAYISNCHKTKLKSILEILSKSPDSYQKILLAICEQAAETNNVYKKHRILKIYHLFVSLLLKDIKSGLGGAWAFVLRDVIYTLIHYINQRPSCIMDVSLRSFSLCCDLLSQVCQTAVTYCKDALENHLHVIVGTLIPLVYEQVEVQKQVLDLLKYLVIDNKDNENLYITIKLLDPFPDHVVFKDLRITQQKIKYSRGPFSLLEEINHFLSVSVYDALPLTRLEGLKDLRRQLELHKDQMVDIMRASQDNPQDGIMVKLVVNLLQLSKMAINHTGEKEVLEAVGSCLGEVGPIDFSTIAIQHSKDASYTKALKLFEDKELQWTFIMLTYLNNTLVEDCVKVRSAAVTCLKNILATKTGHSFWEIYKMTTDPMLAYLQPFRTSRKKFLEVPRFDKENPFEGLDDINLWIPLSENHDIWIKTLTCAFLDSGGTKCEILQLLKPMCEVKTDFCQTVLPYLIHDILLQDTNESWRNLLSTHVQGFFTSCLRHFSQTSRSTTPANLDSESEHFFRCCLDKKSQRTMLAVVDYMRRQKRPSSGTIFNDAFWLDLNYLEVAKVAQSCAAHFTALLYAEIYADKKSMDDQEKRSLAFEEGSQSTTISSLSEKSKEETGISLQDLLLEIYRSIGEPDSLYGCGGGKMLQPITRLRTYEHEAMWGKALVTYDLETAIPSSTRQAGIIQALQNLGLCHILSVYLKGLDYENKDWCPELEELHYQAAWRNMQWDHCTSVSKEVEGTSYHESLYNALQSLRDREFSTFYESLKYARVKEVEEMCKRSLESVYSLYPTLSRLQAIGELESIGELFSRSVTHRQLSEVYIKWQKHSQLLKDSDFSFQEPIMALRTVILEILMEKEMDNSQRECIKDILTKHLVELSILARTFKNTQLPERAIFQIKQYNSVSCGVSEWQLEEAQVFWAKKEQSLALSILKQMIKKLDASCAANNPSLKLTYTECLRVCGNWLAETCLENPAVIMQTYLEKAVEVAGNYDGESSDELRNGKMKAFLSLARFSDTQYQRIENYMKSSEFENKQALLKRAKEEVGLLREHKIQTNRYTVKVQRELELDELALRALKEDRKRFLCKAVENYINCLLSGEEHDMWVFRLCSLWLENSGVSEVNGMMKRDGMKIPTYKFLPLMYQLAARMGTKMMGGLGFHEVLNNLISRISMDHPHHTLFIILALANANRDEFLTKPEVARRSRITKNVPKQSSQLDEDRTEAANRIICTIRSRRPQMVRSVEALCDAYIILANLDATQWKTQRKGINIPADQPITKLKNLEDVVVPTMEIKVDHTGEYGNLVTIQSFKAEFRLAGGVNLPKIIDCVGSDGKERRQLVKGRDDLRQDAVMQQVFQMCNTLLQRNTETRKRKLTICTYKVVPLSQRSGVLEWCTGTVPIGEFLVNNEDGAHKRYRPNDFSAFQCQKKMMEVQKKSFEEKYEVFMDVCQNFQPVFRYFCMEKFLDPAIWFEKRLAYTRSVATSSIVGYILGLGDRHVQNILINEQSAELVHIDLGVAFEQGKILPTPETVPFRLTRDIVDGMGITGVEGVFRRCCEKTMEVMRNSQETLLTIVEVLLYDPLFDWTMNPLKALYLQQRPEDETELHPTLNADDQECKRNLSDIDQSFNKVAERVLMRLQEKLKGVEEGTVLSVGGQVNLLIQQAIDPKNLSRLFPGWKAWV

SMILES: Cc1nc(N2C[C@@H](C)O[C@@H](C)C2)n2c1cnc1ccc(-c3ccc(N4CCC(N)CC4)nc3)cc12 [Example 48, 1-(5-(1-((2S,6R)-2,6-dimethylmorpholino)-3-methylimidazo[1,5-a]quinoxalin-8-yl)pyridin-2-yl)piperidin-4-amine]
IC50 (ATM kinase): 0.46 nM | IC50 [1]: 12.1 nM | IC50 [2]: 7.6 nM

SMILES: CNC1CCN(c2ccc(-c3ccc4ncc5c(C)nc(N6C[C@@H](C)O[C@@H](C)C6)n5c4c3)cn2)CC1 [Example 49, 1-(5-(1-((2S,6R)-2,6-dimethylmorpholino)-3-methylimidazo[1,5-a]quinoxalin-8-yl)pyridin-2-yl)-N-methylpiperidin-4-amine]
IC50 (ATM kinase): 0.8 nM | IC50 [1]: 7.1 nM | IC50 [2]: 4.5 nM

SMILES: CCNC1CCN(c2ccc(-c3ccc4ncc5c(C)nc(N6C[C@@H](C)O[C@@H](C)C6)n5c4c3)cn2)CC1 [Example 50, 1-(5-(1-((2S,6R)-2,6-dimethylmorpholino)-3-methylimidazo[1,5-a]quinoxalin-8-yl)pyridin-2-yl)-N-ethylpiperidin-4-amine]
IC50 (ATM kinase): 0.41 nM | IC50 [1]: 6.3 nM | IC50 [2]: 8.1 nM

Now those with a lower IC50 (ATM kinase), led by results:

IC50 (ATM kinase): 0.19 nM | IC50 [1]: 23.3 nM | IC50 [2]: 17.8 nM
SMILES: Cc1nc(N2C[C@@H](C)O[C@@H](C)C2)n2c1cnc1ccc(-c3ccc(OCCCN4CCOCC4)nc3)cc12 [Example 58, (2S,6R)-2,6-dimethyl-4-(3-methyl-8-(6-(3-morpholinopropoxy)pyridin-3-yl)imidazo[1,5-a]quinoxalin-1-yl)morpholine]

IC50 (ATM kinase): 0.19 nM | IC50 [1]: 12 nM | IC50 [2]: 9.2 nM
SMILES: Cc1nc(N2C[C@@H](C)O[C@@H](C)C2)n2c1cnc1ccc(-c3ccc(OCCCN4CCN(C)CC4)nc3)cc12 [Example 59, (2S,6R)-2,6-dimethyl-4-(3-methyl-8-(6-(3-(4-methylpiperazin-1-yl)propoxy)pyridin-3-yl)imidazo[1,5-a]quinoxalin-1-yl)morpholine]
